Experimental data published in US9598365B2, “Method for synthesizing cycloalkanyl[b]indoles, cycloalkanyl[b]benzofurans, cycloalkanyl[b]benzothiophenes, compounds and methods of use” (Trustees of Dartmouth College, priority 2012, dated 2017).

Tests used:
HCT116 = experiment: K-Ras Wnt synthetic lethal, HCT116 KrasSL; assay type: cell-based; settings: Homo sapiens, HCT-116, read-out: HCT116 KrasSL % Inhibit
Excerpt: (§1) Selected compounds of this invention were screened for K-Ras Wnt synthetic lethal, anti-angiogenic activity, Wnt pathway modulatory activity, insulin and GLP-1 secretion modulatory activity, GPR119 receptor agonist activity, mGlu2R antagonist activity, CGRP receptor antagonist activity, Apelin receptor agonist activity and hexokinase 2 inhibitory activity using the PD^2 and TD^2 Screening Panel (Eli Lilly & Company). See Lee, et al. (2011) J. Biomol. Screen. 16:588-602.

Insulin Secretion = experiment: Insulin secretion, Secretion Hi Gluc; assay type: cell-based
Excerpt: as §1

hCGRP1 = hCGRP1 (Homo sapiens, UniProt O60894+Q16602); experiment: CGRP receptor antagonist, hCGRP1 antagonism; assay type: cell-based
Excerpt: as §1

hApelin = target: T1, hApelin (Homo sapiens, UniProt P35414); experiment: Apelin receptor agonist, hApelin agonism; assay type: cell-based; settings: @ 30 μM
T1 sequence (P35414 1-380): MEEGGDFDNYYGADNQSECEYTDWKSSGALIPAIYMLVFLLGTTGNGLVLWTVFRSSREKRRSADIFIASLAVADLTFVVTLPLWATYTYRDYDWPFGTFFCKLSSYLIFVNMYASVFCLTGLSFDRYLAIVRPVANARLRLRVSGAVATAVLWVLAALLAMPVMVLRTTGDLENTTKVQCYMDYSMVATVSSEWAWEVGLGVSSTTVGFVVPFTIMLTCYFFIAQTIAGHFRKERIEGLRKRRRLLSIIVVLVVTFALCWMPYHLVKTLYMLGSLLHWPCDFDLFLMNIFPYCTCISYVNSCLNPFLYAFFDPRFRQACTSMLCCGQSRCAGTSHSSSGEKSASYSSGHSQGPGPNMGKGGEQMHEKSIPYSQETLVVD
Excerpt: as §1

[1] = Plasma compound exposure after oral dosing in mice; assay type: in vivo, Mice (male C57BL/6); settings: male, C57BL/6, mouse, plasma, oral 100 mg/kg, 30 minutes post-dose, read-out: mean (±standard deviation) plasma levels
Procedure: Mice (male C57BL/6, 8-10 weeks of age) were fasted overnight by being placed in a clean cage without food. The next day, all mice were weighed and assigned to groups of similar body weights. Test compounds were formulated in 1% HEC, 0.25% TWEEN 80, 0.05% antifoam (vehicle control). Compounds 11ls and llu were orally dosed (100 mg/kg) and cardiac sticks were done on CO2 euthanized mice at 30 minutes post-dose. Blood (500+μL whole blood) from the cardiac stick was placed in chilled EDTA-plasma tubes with inhibitors, DPP4 inhibitor (5 μL/500 μL blood) and aprotinin (bovine lung, […]/500 μL blood), and stored on ice. Plasma was separated by centrifugation and aliquoted for compound exposure to total GIP and GLP-1 (X-36 amide). Plates for compound exposure were analyzed for absorption, distribution, metabolism, and excretion, while conventional kits were used for GLP-1 (x-36) amide (Mesoscale) and GIP (Millipore) analyses.

hCGRP1, sequence (Q16602 23-461): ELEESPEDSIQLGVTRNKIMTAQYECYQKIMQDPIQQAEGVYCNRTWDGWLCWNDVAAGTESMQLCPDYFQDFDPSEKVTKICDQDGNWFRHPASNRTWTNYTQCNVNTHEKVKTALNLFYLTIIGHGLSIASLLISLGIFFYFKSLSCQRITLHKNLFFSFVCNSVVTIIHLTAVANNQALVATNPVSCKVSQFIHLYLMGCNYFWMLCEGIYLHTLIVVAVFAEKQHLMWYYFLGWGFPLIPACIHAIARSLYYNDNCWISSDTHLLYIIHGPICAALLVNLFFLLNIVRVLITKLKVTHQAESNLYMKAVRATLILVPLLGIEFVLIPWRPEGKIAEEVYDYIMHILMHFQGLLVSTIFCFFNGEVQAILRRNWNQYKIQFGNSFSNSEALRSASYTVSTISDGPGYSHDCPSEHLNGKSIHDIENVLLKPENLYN
hCGRP1, sequence (O60894 27-148 partner): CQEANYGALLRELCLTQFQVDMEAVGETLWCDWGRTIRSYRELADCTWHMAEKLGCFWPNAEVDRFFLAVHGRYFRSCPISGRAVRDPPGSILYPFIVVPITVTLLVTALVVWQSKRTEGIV

SMILES: CC1(C)c2c([nH]c3ccc(Cl)cc23)C2C=CC1C2 (centres unmarked) [Compound 11s]
- inhibition at 0.2 µM (HCT116; @ 0.2 μM): 2.3%
- inhibition at 2 µM (HCT116; @ 2 μM): -38%
- inhibition at 20 µM (HCT116; @ 20 μM): 96.4%
- Secretion Hi Gluc % Stimulation (Insulin Secretion; @ 2 μM): −1.2%
- Secretion Hi Gluc % Stimulation (Insulin Secretion; @ 10 μM): 15.8%
- inhibition at 30 µM (hCGRP1): 77.1%
- hApelin agonism % Stimulation (hApelin): −46.2%
- concentration at 30 min [1]: 412 ± 88.2 ng/mL
